Source: ChEMBL document CHEMBL2062412, “Structure and bioassay of triterpenoids and steroids isolated from Sinocalamus affinis” (J Nat Prod, 2012)

These compounds were tested against T1, Tyrosine-protein phosphatase non-receptor type 1 (Homo sapiens, UniProt P18031) (assay: Inhibition of GST-tagged human recombinant PTP1B using para-nitrophenyl phosphate as substrate by spectrophotometric analysis).
T1 sequence (P18031 whole entry): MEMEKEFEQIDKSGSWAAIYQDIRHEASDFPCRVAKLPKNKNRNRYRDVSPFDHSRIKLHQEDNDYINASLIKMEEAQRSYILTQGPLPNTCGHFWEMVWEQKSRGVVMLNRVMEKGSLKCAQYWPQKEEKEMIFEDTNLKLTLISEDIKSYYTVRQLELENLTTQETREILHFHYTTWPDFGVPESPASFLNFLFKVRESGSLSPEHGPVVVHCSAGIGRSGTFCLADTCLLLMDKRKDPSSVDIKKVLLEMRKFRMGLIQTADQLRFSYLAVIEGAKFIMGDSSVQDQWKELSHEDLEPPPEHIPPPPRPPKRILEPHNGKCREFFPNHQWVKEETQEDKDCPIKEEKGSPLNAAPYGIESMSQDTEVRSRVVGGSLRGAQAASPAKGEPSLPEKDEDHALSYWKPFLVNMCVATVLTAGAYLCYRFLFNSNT

IC50, 6.8 µM:
CC(C)[C@@H]1C[C@@H](O)[C@H]2[C@@]1(CO)CC[C@@]1(C)[C@H]3C(=CC[C@]21C)C1=C(C[C@@H]3O)C(C)(C)[C@@H](O)CC1
CC(C)[C@@H]1[C@H](O)[C@@H](O)[C@H]2[C@@]1(CO)CC[C@@]1(C)[C@H]3C(=CC[C@]21C)C1=C(C[C@@H]3O)C(C)(C)[C@@H](O)CC1
CC(C)[C@@H]1CC(=O)[C@H]2[C@@]1(CO)CC[C@@]1(C)[C@H]3C(=CC[C@]21C)C1=C(C[C@@H]3O)C(C)(C)[C@@H](O)CC1
CC(C)[C@@H]1C[C@@H](O)[C@H]2[C@@]1(CO)CC[C@@]1(C)[C@H]3C(=CC[C@]21C)C1=C(C[C@@H]3O)[C@](C)(CO)[C@@H](O)CC1
CC(C)[C@@H]1C[C@@H](O)[C@H]2[C@@]1(CO)CC[C@@]1(C)[C@H]3C(=CC[C@]21C)C1=CC[C@H](O)C(C)(C)[C@H]1C[C@@H]3O
